Results on 22 compounds are retold here after paper PMC4515785 (Journal of Medicinal Chemistry, 2015).

Marks after values point to notes of the source that are not given here.

As usually defined, the EC50 is the concentration at which the effect is half-maximal. By microsomal CLint is commonly meant a measure of how fast metabolising enzymes remove a compound, apart from limits set by blood flow. As a reminder, the hepatocyte CLint is the rate of metabolic loss divided by the concentration.

Series [1] concerns L. major promastigotes. Kind of series: Leishmania major promastigote assay. In kind it is cell-based. As to conditions: for EC50: read-out: L. major EC50 Promast.
Series [2] concerns T. cruzi Tulahuen strain expressing β-galactosidase. Kind of series: Trypanosoma cruzi intracellular amastigote assay in 3T3 cells. The series is classed as cell-based. As to conditions: for EC50: read-out: T. cruzi EC50; for EC50 / T. cruzi EC50: intracellular amastigotes in 3T3 cells, 96 h.
Series [3] deals with P. falciparum D6. In words: Plasmodium falciparum SYBR Green fluorescence. The series is classed as cell-based. To be noted: D6, drug sensitive strain; for EC50: read-out: P. falciparum D6 EC50.
Series [4] relates to HepG2 cells. Kind of series: HepG2 toxicity assay. The series is classed as cell-based. To be noted: 48 h, MTT.
The nature of series [5]: plasma protein binding. In kind it is in vitro ADME.
Series [6] in a line: Human liver microsomes intrinsic clearance. The series is classed as in vitro ADME. Background: Liver microsomes are a subcellular fraction often used to study metabolism.
Series [7] in a line: male rat hepatocytes intrinsic clearance. In kind it is in vitro ADME.
For series [8], the system named is T. brucei. As to conditions: read-out: T. brucei EC50; previously reported quinazoline analogs; cited from earlier work.

Take “N-(3-Chloro-4-((3-fluorobenzyl)oxy)phenyl)-6-(3-morpholinophenyl)thieno[3,2-d]pyrimidin-4-amine [compound 85]”: the 50% effective concentration (EC50) in series [1] is more than 15 µM; in series [2], more than 50 µM; in series [3] it was 0.86 µM. In addition, the “HepG2 TC50” value in series [4] is more than 15 µM.

Consider `O=S(=O)(c1ccc(-c2ccc3nccc(Nc4ccc(OCc5ccccc5)c(Cl)c4)c3c2)cc1)N1CCOCC1` [compound 47, N-(4-(Benzyloxy)-3-chlorophenyl)-6-(4-(morpholinosulfonyl)phenyl)quinolin-4-amine], for which the “plasma protein binding (% free)” value in series [5] was less than 1 % free. For the same compound, the microsomal CLint in series [6] came out at 78.9 µL/min/mg.

On to `CN1CCCN(S(=O)(=O)c2ccc(-c3ccc4ncc(C#N)c(Nc5ccc(OCc6cccc(F)c6)c(Cl)c5)c4c3)cc2)CC1` [compound 83, 4-((3-Chloro-4-((3-fluorobenzyl)oxy)phenyl)amino)-6-(4-((4-methyl-1,4-diazepan-1-yl)sulfonyl)phenyl)quinoline-3-carbonitrile], for which the “fold increase in T. cruzi potency over matched des-fluoro analog” value in series [2] (83 vs 84) was 10 fold. The “fold improvement in T. cruzi potency over matched quinazoline analog 4” value in series [2] (vs 4) is 5 fold. Besides, the “plasma protein binding (% free)” value in series [5] is less than 1 % free. Besides, in series [6], the microsomal CLint amounted to 152 µL/min/mg.

As to “N-(3-Chloro-4-((3-fluorobenzyl)oxy)phenyl)-6-(4-((4-methyl-1,4-diazepan-1-yl)sulfonyl)phenyl)thieno[2,3-d]pyrimidin-4-amine [compound 92]”, the EC50 in series [2] stood at 15 µM. Besides, the “HepG2 TC50” value in series [4] was more than 15 µM.

For `O=S(=O)(c1ccc(-c2ccc3ccnc(Nc4ccc(OCc5ccccc5)c(Cl)c4)c3c2)cc1)N1CCOCC1` [compound 55, N-(4-(Benzyloxy)-3-chlorophenyl)-7-(4-(morpholinosulfonyl)phenyl)isoquinolin-1-amine], in series [1], the “L. major EC50 Promast” value was “complete loss in activity”.

Turning to `O=S(=O)(c1ccc(-c2ccc3ncnc(Nc4ccc(OCc5ccccc5)c(Cl)c4)c3c2)cc1)N1CCOCC1` [compound 3], the “T. cruzi % inh at 10 μM” value in series [2] (10 μM) is “(9.5)* %”.

Regarding `Fc1cccc(COc2ccc(Nc3ncnc4ccc(-c5cccc(N6CCOCC6)c5)cc34)cc2Cl)c1` [compound 1], the intrinsic metabolic clearance (hepatocyte CLint) in series [7] turned out to be 44.5 µL/min/1e6 cells. In addition, the “plasma protein binding (% free)” value in series [5] is recorded as less than 1 % free. In series [6], this compound showed an intrinsic clearance (microsomal CLint) of 63 µL/min/mg.

Turning to `CN1CCCN(S(=O)(=O)c2ccc(-c3ccc4ccnc(Nc5ccc(OCc6cccc(F)c6)c(Cl)c5)c4c3)cc2)CC1` [compound 59, N-(3-Chloro-4-((3-fluorobenzyl)oxy)phenyl)-7-(4-((4-methyl-1,4-diazepan-1-yl)sulfonyl)phenyl)isoquinolin-1-amine], the “fold less potent against T. cruzi” value in series [2] (compared with the quinazoline 4) was 10 fold.

`CN1CCCN(S(=O)(=O)c2ccc(-c3ccc4ncnc(Nc5ccc(OCc6cccc(F)c6)c(Cl)c5)c4c3)cc2)CC1` [compound 4]: in series [8], the EC50 is 0.81 µM.

For the compound `CN1CCN(S(=O)(=O)c2ccc(-c3ccc4nccc(Nc5ccc(OCc6cccc(F)c6)c(Cl)c5)c4c3)cc2)CC1` [compound 49, N-(3-Chloro-4-((3-fluorobenzyl)oxy)phenyl)-6-(4-((4-methylpiperazin-1-yl)sulfonyl)phenyl)quinolin-4-amine], the “P. falciparum D6 EC50” value in series [3] is “complete loss in activity”.

For the compound `CN1CCCN(S(=O)(=O)c2ccc(-c3ccc4c(Nc5ccc(OCc6cccc(F)c6)c(Cl)c5)ccnc4c3)cc2)CC1` [compound 52, N-(3-Chloro-4-((3-fluorobenzyl)oxy)phenyl)-7-(4-((4-methyl-1,4-diazepan-1-yl)sulfonyl)phenyl)quinolin-4-amine], the “T. cruzi EC50” value in series [2] is listed as “submicromolar potency”.

Turning to “N-(4-(Benzyloxy)-3-chlorophenyl)-6-(4-(morpholinosulfonyl)phenyl)thieno[2,3-d]pyrimidin-4-amine [compound 88]”, the EC50 was more than 15 µM in series [1], more than 50 µM in series [2] and 0.22 µM in series [3]. For the same compound, the “HepG2 TC50” value in series [4] was more than 15 µM.

With “N-(3-Chloro-4-((3-fluorobenzyl)oxy)phenyl)-6-(4-((4-methylpiperazin-1-yl)sulfonyl)phenyl)thieno[3,2-d]pyrimidin-4-amine [compound 89]”, the results for the EC50 in series [1], in series [2] and in series [3] were 3.4 µM, 5.5 µM and 0.021 µM, respectively. Also, the “HepG2 TC50” value in series [4] is more than 15 µM.

As for `CN1CCN(S(=O)(=O)c2ccc(-c3ccc4c(Nc5ccc(OCc6cccc(F)c6)c(Cl)c5)ccnc4c3)cc2)CC1` [compound 50, N-(3-Chloro-4-((3-fluorobenzyl)oxy)phenyl)-7-(4-((4-methylpiperazin-1-yl)sulfonyl)phenyl)quinolin-4-amine], the “T. cruzi EC50” value in series [2] is on record as “submicromolar potency”. Further, the “plasma protein binding (% free)” value in series [5] is given as less than 1 % free. In addition, the microsomal CLint in series [6] was 143 µL/min/mg.

As to `CN1CCN(S(=O)(=O)c2ccc(-c3ccc4ncnc(Nc5ccc(OCc6cccc(F)c6)c(Cl)c5)c4c3)cc2)CC1` [compound 5], in series [8], the EC50 is 0.53 µM.

Turning to “N-(4-(Benzyloxy)-3-chlorophenyl)-6-(4-(morpholinosulfonyl)phenyl)thieno[3,2-d]pyrimidin-4-amine [compound 87]”, the results for the EC50 in series [1], in series [2] and in series [3] were more than 3 µM, more than 50 µM and 0.62 µM, respectively. In series [4], the “HepG2 TC50” value is more than 5 µM.

Regarding “N-(3-Chloro-4-((3-fluorobenzyl)oxy)phenyl)-6-(4-((4-methyl-1,4-diazepan-1-yl)sulfonyl)phenyl)thieno[3,2-d]pyrimidin-4-amine [compound 91]”, the concentration giving a half-maximal response (EC50) in series [2] was more than 50 µM. The “HepG2 TC50” value in series [4] was more than 15 µM.

Regarding “N-(3-Chloro-4-((3-fluorobenzyl)oxy)phenyl)-6-(3-morpholinophenyl)thieno[2,3-d]pyrimidin-4-amine [compound 86]”, the EC50 in series [1] was more than 15 µM; in series [2] it was 2.2 µM; in series [3] it was 0.52 µM. The “HepG2 TC50” value in series [4] was more than 15 µM.

For the compound `CN1CCCN(S(=O)(=O)c2ccc(-c3ccc4c(Nc5ccc(OCc6cccc(F)c6)c(Cl)c5)nncc4c3)cc2)CC1` [compound 76, N-(3-Chloro-4-((3-fluorobenzyl)oxy)phenyl)-6-(4-((4-methyl-1,4-diazepan-1-yl)sulfonyl)phenyl)phthalazin-1-amine], in series [3], the “P. falciparum D6 EC50” value was “equipotent to 5”.

Regarding `CN1CCCN(S(=O)(=O)c2ccc(-c3ccc4nccc(Nc5ccc(OCc6cccc(F)c6)c(Cl)c5)c4c3)cc2)CC1` [compound 51, N-(3-Chloro-4-((3-fluorobenzyl)oxy)phenyl)-6-(4-((4-methyl-1,4-diazepan-1-yl)sulfonyl)phenyl)quinolin-4-amine], the “T. cruzi EC50” value in series [2] was “submicromolar potency”.

Consider “N-(3-Chloro-4-((3-fluorobenzyl)oxy)phenyl)-6-(4-((4-methylpiperazin-1-yl)sulfonyl)phenyl)thieno[2,3-d]pyrimidin-4-amine [compound 90]”, for which the figures for the EC50 in series [1], in series [2] and in series [3] were more than 15 µM, 48 µM and 0.043 µM, respectively. Besides, the “HepG2 TC50” value in series [4] is more than 15 µM.

Regarding `CN1CCCN(S(=O)(=O)c2ccc(-c3ccc4c(Nc5ccc(OCc6cccc(F)c6)c(Cl)c5)cnnc4c3)cc2)CC1` [compound 68, N-(3-Chloro-4-((3-fluorobenzyl)oxy)phenyl)-7-(4-((4-methyl-1,4-diazepan-1-yl)sulfonyl)phenyl)cinnolin-4-amine], the “plasma protein binding (% free)” value in series [5] is given as less than 1 % free. The compound also displayed an intrinsic metabolic clearance (microsomal CLint) in series [6] of 99.3 µL/min/mg.
